The values below come from patent US6489338B2, “Imidazopyridine and imidazopyrimidine antiviral agents” (Bristol-Myers Squibb Company, priority 2000, dated 2002).

The subject of this experiment is respiratory syncytial virus Long strain. Description: Antiviral activity against respiratory syncytial virus, MTT cell protection assay in HEp-2 cells. The conditions noted are these: HEp-2 cells infected with RSV Long strain, MTT staining. Format: cell-based. The protocol: The antiviral activity of these compounds against respiratory syncytial virus was determined in HEp-2 (ATCC CCL 23) cells that were seeded in 96 well microtiter plates at 1.5×10^4 cells/100 μL/well in DMEM (Dulbecco's Modified Eagle's Medium) supplemented with penicillin, streptomycin, glutamine, and 10% fetal bovine serum. The cells were incubated overnight at 37° C., the culture medium was removed, and cells were infected (100 μL volume in medium containing 2% fetal bovine serum) with respiratory syncytial virus Long strain at 5000 plaque forming units/mL. The compounds, 100 μL at appropriate dilution, were added to the cells 1 hour post infection. After incubation for 4 days at 37° C., the plates were stained with MTT solution (3-[4,5-dimethlythiazol-2-yl]-2,5-diphenyltetrazolium bromide) and incubated for 4 hours at 37° C. The media was aspirated from the cells and 100 μL/well of acidified isopropanol (per liter: 900 mL isopropanol, 100 mL Triton X100, and 4 mL conc. HCl) was added. Plates were incubated for 15 minutes at room temperature with shaking, and an optical density (OD 540) reading at 540 nanometer (nm) was obtained. The optical density reading is proportional to the number of viable cells. The increase in the number of viable cells reflects the protective, antiviral activity of the compound. […]

The structures appear in SMILES notation.

The compound `NC(=O)c1ncn([C@@H]2O[C@H](CO)[C@@H](O)[C@H]2O)n1` [Ribavirin] had a cell protection (at 2.5 μg/mL (corresponding to 10.2 μM)) of 100%. The EC50 (human respiratory syncytial virus, compound added 1 hour post infection, 4 days at 37° C., read-out: EC50 (concentration that produces 50% cell protection)) is 3000 nM.
